In US11292821B2, “Peptides and combination of peptides for use in immunotherapy against lung cancer, including NSCLC, SCLC and other cancers” (Immatics Biotechnologies GmbH, priority 2017, dated 2022):

System: HLA-B*44
Assay: MHC binding assay (UV-ligand exchange, β2m ELISA)
Set-up: species or system human
Details: not given

binding to HLA allotype	Substance
binds to HLA-B*44	AEIEADRSY (listed as Homo sapiens) [SEQ ID NO: 531]

Same assay, conditions: UV-ligand exchange, β2m ELISA

Substance	Peptide exchange (peptide exchange yield, MHC class I binding score)
361 (SENLFFASF; listed as Homo sapiens) [compound 361]	“++++” (>75% = ++++)
362 (SEKGVIQVY; listed as Homo sapiens) [compound 362]	“+++” (>50 =+++)
363 (AELDKLTSV; listed as Homo sapiens) [compound 363]	“+++” (>50 =+++)
364 (AETPIQNVI; listed as Homo sapiens) [compound 364]	“+++” (>50 =+++)
365 (SEMNVNMKY; listed as Homo sapiens) [compound 365]	“++++” (>75% = ++++)
366 (AENLFRAF; listed as Homo sapiens) [compound 366]	“++” (>20% = ++)
367 (GEVHPSEMI; listed as Homo sapiens) [compound 367]	“+++” (>50 =+++)
368 (GEFPVRVQV; listed as Homo sapiens) [compound 368]	“++” (>20% = ++)
369 (EEIERFFKL; listed as Homo sapiens) [compound 369]	“+++” (>50 =+++)
370 (YEDLSQKY; listed as Homo sapiens) [compound 370]	“+” (>10% = +)
371 (GELALKKKI; listed as Homo sapiens) [compound 371]	“++” (>20% = ++)
372 (TEGIIMKDF; listed as Homo sapiens) [compound 372]	“++” (>20% = ++)
373 (MEMQKSPVF; listed as Homo sapiens) [compound 373]	“+++” (>50 =+++)

Results, then the substance that gave them:

Peptide exchange (peptide exchange yield, MHC class I binding score)	Substance
“+” (>10% = +)	374 (DEVNFLVY; listed as Homo sapiens) [compound 374]
“+++” (>50 =+++)	478 (SEIEQEIGSL; listed as Homo sapiens) [compound 478]
“+++” (>50 =+++)	479 (AEIQPQTQV; listed as Homo sapiens) [compound 479]
“++” (>20% = ++)	480 (GEVSGLTKDF; listed as Homo sapiens) [compound 480]
“+++” (>50 =+++)	481 (RELQHEHSL; listed as Homo sapiens) [compound 481]
“+++” (>50 =+++)	482 (TEREWADEW; listed as Homo sapiens) [compound 482]
“+++” (>50 =+++)	483 (EENDQSTHKW; listed as Homo sapiens) [compound 483]
“++++” (>75% = ++++)	484 (AEVGFVRFF; listed as Homo sapiens) [compound 484]
“+++” (>50 =+++)	485 (SEIEDSTKQVF; listed as Homo sapiens) [compound 485]
“+++” (>50 =+++)	486 (SEDDPILQI; listed as Homo sapiens) [compound 486]
“+++” (>50 =+++)	487 (AEDQLHHSF; listed as Homo sapiens) [compound 487]
“++” (>20% = ++)	488 (TEFPIIKMY; listed as Homo sapiens) [compound 488]
“++++” (>75% = ++++)	489 (SEIGKAVGF; listed as Homo sapiens) [compound 489]
